Molecules are shown by their SMILES.

Consider four compounds from US20250313546A1, “NUCLEIC ACID BINDERS” (UNIVERSITY OF STRATHCLYDE, priority 2022, published 2025).

In one test the test system is T. equiperdum. Kind of test: Resazurin-based (Alamar blue) drug sensitivity assay. The following applies: Trypanosoma equiperdum, read-out: IC50 T. equiperdum.
The test system of test [1] is A. fumigatus A1160 (MFIG001). The following applies: Aspergillus fumigatus, read-out: MIC99 A. fumigatus A1160.
Method: The Minimum Inhibitory Concentration (MIC, at 99% inhibition) of the compounds was determined using the broth microdilution method as recommended by EUCAST (EUCAST Definitive Document E.DEF 9.3.2, Method for the determination of broth dilution minimum inhibitory concentrations of antifungal agents for conidia forming moulds and EUCAST Definitive Document E.DEF 7.3.2 Method for the determination of broth dilution minimum inhibitory concentrations of antifungal agents for yeasts).
In test [2] the test system is Escherichia coli (ATCC 25922). Kind of test: Antibacterial MIC, broth microdilution (CLSI). The class given is cell-based. The following applies: Escherichia coli, ATCC25922; read-out: MIC80 E. coli. In general terms: Dilution methods test growth across graded concentrations, often in twofold steps.
Test [3] has as its system Staphylococcus aureus (ATCC 43300). Kind of test: Antibacterial MIC, broth microdilution (CLSI). Format: cell-based. The following applies: for MIC80: Staphylococcus aureus, ATCC43300, read-out: MIC80 S. aureus; for S. aureus Selectivity Indices, Group: Amides.
Test [4] deals with Candida glabrata (ACPF3309). As to conditions: Nakaseomyces glabratus, read-out: MIC99 Candida glabrata.
The next test relates to C. neoformans (F10025). The following applies: Cryptococcus neoformans, read-out: MIC99 C. neoformans.
Test [5] concerns Enterococcus faecalis (ATCC 51299). Kind of test: Antibacterial MIC, broth microdilution (CLSI). Format: cell-based. The following applies: for MIC80: Enterococcus faecalis, ATCC51299, read-out: MIC80 E. faecalis; for E. faecalis Selectivity Indices, Group / E. faecalis Selectivity Index (SI): SI, IC50 (μM)/MIC80 (μM), HEK293 cytotoxicity; for E. faecalis Selectivity Indices, Group: Amides; for E. faecalis Selectivity Index (SI): numeric value.

The test system of a further test is T. evansi AntTat 3/3. Kind of test: Resazurin-based (Alamar blue) drug sensitivity assay. As to conditions: read-out: IC50 T. evansi. For orientation: Resazurin is reduced to fluorescent resorufin, in cell work by metabolically active cells.
The subject of test [6] is Genomic double stranded DNA (salmon). Kind of test: Fluorescence intercalator displacement (FID) assay, SYBR-safe probe. As to conditions: 20 μM compound, 30° C., lower % = stronger binding. The gist of the method: (§1)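 Probe displacement was measured at 30 °C in 1 mM phosphate pH 7.4 containing SybrSafe (12500-fold dilution), 3.76 ng/mL nucleic acid (salmon dsDNA or polyAU dsRNA) and 20 μM compound. Fluorescence loss is normalised between probe-only and probe-plus-nucleic-acid controls.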

Test [7] has as its system PolyAU double stranded RNA. The description is as above. The following applies: 20 μM compound, 30° C., lower % = stronger binding. The gist of the method:
as §1

Where [8] appears, read: SI, IC50 (μM)/MIC80 (μM), HEK293 cytotoxicity.

On to `Cn1cc(NC(=O)c2ccc(/C=C/c3cnc4ccccc4c3)cc2)cc1C(=O)Nc1c[nH]c(C(=O)NCCN2CCOCC2)c1` [IIIb4, (E)-1-methyl-N-(5-((2-morpholinoethyl)carbamoyl)-1H-pyrrol-3-yl)-4-(4-(2-(quinolin-3-yl)vinyl)benzamido)-1H-pyrrole-2-carboxamide], for which the IC50 with T. equiperdum and in the test on T. evansi AntTat 3/3 was 10 to 100 nM throughout. Moreover, the MIC99 (in test [1]; in [4]; with C. neoformans (F10025)) was more than 50 µg/mL each time. Besides, the MIC80 in [2] is more than 100 µM; in test [3], less than 5 µM; in [5] it was more than 100 µM. The “% Normalised Fluorescence with gDNA” value in test [6] was 37%. Further, the “% Normalised Fluorescence with polyAU RNA” value in test [7] came out at 86%.

As to `O=C(Nc1c[nH]c(C(=O)Nc2c[nH]c(C(=O)NCCN3CCOCC3)c2)c1)c1ccc(/C=C/c2cnc3ccccc3c2)cc1` [IIIb5, (E)-N-(2-morpholinoethyl)-4-(4-(4-(2-(quinolin-3-yl)vinyl)benzamido)-1H-pyrrole-2-carboxamido)-1H-pyrrole-2-carboxamide], the half-maximal inhibitory concentration (IC50) in the test with T. equiperdum and in the test on T. evansi AntTat 3/3 was 10 to 100 nM in each case. For the same compound, the MIC99 (in test [1]; in test [4]; in the test on C. neoformans (F10025)) was more than 50 µg/mL each time. Moreover, the MIC80 is more than 100 µM in test [2], less than 5 µM in [3] and more than 100 µM in test [5]. Further, the “% Normalised Fluorescence with gDNA” value in test [6] was found to be 49%. Besides, the “% Normalised Fluorescence with polyAU RNA” value in test [7] was determined as 59%.

`Cn1cc(NC(=O)c2cc(NC(=O)c3ccc(/C=C/c4cnc5ccccc5c4)cc3)cn2C)cc1C(N)=O` [IVa1, (E)-N-(5-carbamoyl-1-methyl-1H-pyrrol-3-yl)-1-methyl-4-(4-(2-(quinolin-3-yl)vinyl)benzamido)-1H-pyrrole-2-carboxamide]: the IC50 with T. equiperdum and in the test on T. evansi AntTat 3/3 was 100 to 1000 nM in each case. The MIC80 in test [2] was more than 100 µM; in test [3], less than 5 µM; in test [5], less than 5 µM. Further, the “S. aureus Selectivity Indices, Group” value in [3] (setting [8]) was “B (Group B: 1.4 < SI <= 3)”. The “E. faecalis Selectivity Indices, Group” value in test [5] is on record as “C (Group: C, 1.5 < SI <= 5)”. Moreover, in test [5], the “E. faecalis Selectivity Index (SI)” value was 3. Also, the “% Normalised Fluorescence with gDNA” value in [6] was 41%. Moreover, the “% Normalised Fluorescence with polyAU RNA” value in test [7] stood at 65%.

Regarding `CNC(=O)c1cc(NC(=O)c2cc(NC(=O)c3ccc(/C=C/c4cnc5ccccc5c4)cc3)cn2C)cn1C` [IVa2, (E)-N,1-dimethyl-4-(1-methyl-4-(4-(2-(quinolin-3-yl)vinyl)benzamido)-1H-pyrrole-2-carboxamido)-1H-pyrrole-2-carboxamide], the concentration for half-maximal inhibition (IC50) in the test with T. equiperdum and in the test with T. evansi AntTat 3/3 was 100 to 1000 nM in each case. Also, the MIC80 in test [2] is more than 100 µM; in test [3] it was less than 5 µM; in test [5] it was less than 5 µM. Also, the “S. aureus Selectivity Indices, Group” value in test [3] (setting [8]) is “C (Group C: SI > 3)”. For the same compound, the “S. aureus Selectivity Index (SI)” value in [3] (SI, IC50 (μM)/MIC80 (μM), HEK293 cytotoxicity, numeric value) was 4. In test [5], the “E. faecalis Selectivity Indices, Group” value is reported as “D (Group D: SI > 5)”. For the same compound, the “E. faecalis Selectivity Index (SI)” value in [5] is listed as 10. Also, the “% Normalised Fluorescence with gDNA” value in test [6] is listed as 29%. The “% Normalised Fluorescence with polyAU RNA” value in test [7] amounted to 73%.

The IC50 is the concentration needed to halve the response being measured. The MIC99 is the lowest concentration that inhibits either 99% of growth or 99% of the strains tested, depending on the study. Broadly, the MIC80 is the lowest concentration that inhibits either 80% of growth or 80% of the strains tested, depending on the study.
